Source: patent publication US20130059362A1, “BIOSENSORS COMPRISING PROTEIN-BINDING DOMAINS AND FLUORESCENT PROTEINS” (SIGMA-ALDRICH CO., LLC, priority 2010, published 2013)

Tested on: EGFR
Experiment: Ligand activation of EGFR monitored by relocalization of the 2×(SH2)Grb2 biosensor in live cells
Format: cell-based, human
Conditions: 100 ng/mL; much less than EGF
Method: The nucleic acid encoding TagGFP-2×(SH2)Grb2 was cloned into a lentiviral vector. Lentiviral particles were prepared and used to stably transfect A549 cells with the TagGFP:2×(SH2)Grb2 biosensor.
The cell nuclei were labeled with 1 μM DRAQ5.
A variety of other ligands were tested for their ability to activate EGFR, as monitored by the SH2 biosensor. […] Most of the ligands were tested for activity with the TagGFP:2×(SH2)Grb2 biosensor in live cells. […]

HGF: a growth factor that binds HGFR
Activity (relocalization of the SH2 biosensor): showed activity
